Measurements published in PMC4527344 (Tetrahedron letters, 2015).

Test system: M. tuberculosis

CCOC(=O)CSc1nc(N)c2c3c(sc2n1)CC(C(C)(C)C)CC3 (stereo not shown) [CD117]
CD117-resistant mutants obtained: unable to obtain CD117-resistant mutants
